{"source": "patent US20080317700A1", "about": "(priority 2006, published 2008)", "assay_type_in_all_cases": "cell-based", "key": {"[1]": {"test_system": "cyanobacteria Synechococcus 7002", "assay": "microbe, parasite or virus in culture", "protocol": "After phototrophical propagation during the 5 days under cool fluorescence light (intensity 5000 lux), the average radii of inhibition zones were measured. Water soaked filter paper circles were used as controls. Experiments for each herbicide concentration were repeated 3 times."}, "[2]": {"test_system": "Phaeodactylum tricornutum", "assay": "Inhibition zones around polymer pellets, diatom Phaeodactylum", "settings": "Phaeodactilum, pellet without herbicide 0", "protocol": "Rectangular copolymer pellets (15×10×1.5 mm) were formed from a model acrylic resin (designated as 459S2) containing several epoxy acrylic oligomers (57%), acrylic monomeric diluents (43%) and a corresponding amount of herbicide. A designated quantity of herbicide was dispersed or partially dissolved in 459S2 resin using ultrasonication and heat (60° C., overnight). To each sample, 1.5% wt. of commercial photoinitiator (ITX), 5% of ODAB synergist and 0.1% co-photoinitiator (Irgacure 819) were added. Liquid formulations were poured into an open top Teflon mold and irradiated under N2 by a 395 nm LED light source for 5 min followed by pellet removal.\nTwo different diatom cultures, Phaeodactylum tricornutum and Navicula pelliculosa were used in the biological activity tests. […] Following propagation over 5 days under continuous cool fluorescent light (5000 lx), the average radii of inhibition zones were measured. Experiments for each herbicide concentration were repeated at least two times."}, "[3]": {"test_system": "cyanobacteria Synechocystos 6803", "assay": "Liquid culture growth inhibition (optical density), fresh water cyanobacteria", "settings": "Synechocystos 6803, BG-11 liquid medium, 1 mM herbicide, control 1.4", "protocol": "(§1) Strains of green algae, cyanobacteria and E. Coli were used as test organisms. The green algae CD 1 Red and cyanobacteria Synechocystos 6803 were obtained from the collection of Prof. George Bullerjahn. Salt water strain of cyanobacteria Synechococcus 7002 was obtained from the collection of Prof. Michael McKay. E Coli DH 5α was obtained from Invitrogen Inc.\nGreen algae and cyanobacteria were propagated photoautotrophically in 250 mL Erlenmeyer flasks containing 100 mL of liquid BG-11 culture medium (see Supporting Information). The cultures were kept on a rotating shaker (100 rpm) at 25° C. for 4 days and continuously illuminated with cool-white fluorescent light with a constant light intensity of 5000 lux. The grown culture medium was sterilized in an autoclave at 121° C. and 1.05 kg cm^−2 pressure for 20 min. For the cell experiments, 20 mL aliquots of the BG-11 medium containing the green algal ([cells]initial=5.9×10^7 mL^−1) or cyanobacteria cells ([cells]initial=1.7×10^9 mL^−1) were placed in sterile 50 mL Erlenmeyer flasks. […] Cell counts were correlated with the absorbance and measured as a function of time using a Spectronic 20 Genesis spectrophotometer. […] In each experiment, the inhibition of cell growth in treated cultures was monitored spectrophotometrically and compared to the growth in control samples."}, "[4]": {"test_system": "E Coli DH 5α", "assay": "Liquid culture growth inhibition (optical density), E. Coli", "settings": "for Optical Density at 680 nm, measurements taken after 24 hours of growth: E. Coli, M9 minimum medium, 30 mM herbicide, control 1.30; for Toxicity towards E. Coli (liquid culture): inhibition only during first 10 hours, beyond 24 hours optical density matched controls", "protocol": "as §1\nE. Coli was propagated heterotrophically in a 2 mL Eppendorf test-tube containing 1.5 mL of liquid M9 minimum medium (see Supporting Information) and kept on a rotating shaker (100 rpm) at 37° C. for 12 hours. The grown culture medium was sterilized at 121° C., 1.05 kg cm^−2 for 20 min. For the cell experiments, 100 mL aliquots of the M9 medium containing the E. Coli cells ([cells]initial=6×10^5 mL^−1) were distributed into sterile 250 mL Erlenmeyer flasks and treated with a stock herbicide solution to obtain a final concentration of 30 mM, followed by an incubation for 24 h on a rotating shaker (100 rpm) at 37° C. […] Control and treated cultures were grown under the same conditions of temperature and shaking. In each experiment, the inhibition of growth in treated cultures was monitored spectrophotometrically and compared to the growth in control samples."}, "[5]": {"test_system": "green algae CD 1 Red", "settings": "BG-11 agar, 1 mM herbicide, homopolymer as film cast in Petri dish", "protocol": "(§2) BG-11 medium containing 1.5 wt. % agar was prepared and sterilized at 121° C., 1.05 kg cm^−2 for 20 minutes. Each herbicide tested was prepared as a 30 mM solution and added to the autoclaved agar medium to yield a 1 mM final concentration of the herbicide. A 20 mL aliquot of the liquid agar was transferred into a standard Petri dish (100×15 mm) and allowed to harden at room temperature. Cell suspensions of green algae CD 1 Red, cyanobacteria Synechocystos 6803 and Synechococcus 7002 were inoculated using a sterile inoculation loop. Dishes were stored at 25° C. under illumination with the cool-white fluorescent light having a constant light intensity of 5000 lx. The experiment for each herbicide was repeated five times. Control and treated cultures grew under the same conditions of temperature and photoperiod. In each experiment, the inhibition of growth in treated cultures was monitored relative to the growth in control samples using qualitative visual observation.\n(§3) Additional experiments for testing the toxicity of the homopolymer of AA were implemented. Ten mL of aqueous polymer solution was placed on a sterile Petri dish and left at room temperature until all water was evaporated (3 days) to form a thin polymer film. Twenty mL of the liquid agar was transferred into the Petri dish and allowed to harden at room temperature. Cell suspensions of green algae CD 1 Red, cyanobacteria Synechocystos 6803 and Synechococcus 7002 were inoculated using a sterile inoculation loop. An analogous system containing no polymer film was used as a control for the experiment. Inhibition of growth in treated cultures was monitored relative to the growth in control samples using qualitative visual observations."}, "[6]": {"test_system": "cyanobacteria Synechococcus 7002", "settings": "Synechococcus 7002, BG-11 agar, 1 mM herbicide; homopolymer as film cast in Petri dish", "protocol": "as §2, §3"}, "[7]": {"test_system": "cyanobacteria Synechocystos 6803", "settings": "Synechocystos 6803, BG-11 agar, 1 mM herbicide; homopolymer as film cast in Petri dish", "protocol": "as §2, §3"}, "[8]": {"settings": "Syn. 7002, herbicide concentration 0.3 mM, 5 days"}, "[9]": {"settings": "herbicide 0.1 M in 459S2 polymer pellet"}, "[10]": {"settings": "herbicide 0.3 M in 459S2 polymer pellet"}, "[11]": {"settings": "Synechococcus, 120 h, read-out: Average radii of the inhibition zones"}}, "note": "Where two headings read alike, the source gives them in different places. Marks after values point to notes of the source that are not given here."}
{"smiles": "O=C(O)CNCP(=O)(O)O", "note": "[Glyphosate, N-(Phosphonomethyl)glycine, reference compound]", "values": [{"measurement": "Average radii of the inhibition zones", "setting": "[1]; [8]", "value": "No"}, {"measurement": "Average radii of the inhibition zones", "setting": "[1]; Syn. 7002, herbicide concentration 300 mM, 5 days", "value": "Complete"}, {"measurement": "zone of inhibition at 3000 µM", "setting": "[1]; Synechococcus, 120 h, Syn. 7002, herbicide concentration 3 mM, 5 days, read-out: Average radii of the inhibition zones", "value": 6, "unit": "mm"}, {"measurement": "zone of inhibition at 30000 µM", "setting": "[1]; Synechococcus, 120 h, Syn. 7002, herbicide concentration 30 mM, 5 days, read-out: Average radii of the inhibition zones", "value": 8, "unit": "mm"}, {"measurement": "Diameter of Inhibition Zone (Bleaching indicates no growth detected on 100 mm plate)", "setting": "[2]; [9]", "value": "17.5 ± 2", "unit": "mm"}, {"measurement": "Diameter of Inhibition Zone (Bleaching indicates no growth detected on 100 mm plate)", "setting": "[2]; [10]", "value": "Bleaching"}, {"measurement": "Optical Density at 680 nm after 7 days of media growth", "setting": "[3]", "value": 0.58}, {"measurement": "Optical Density at 680 nm, measurements taken after 24 hours of growth", "setting": "[4]", "value": "1.20^c"}, {"measurement": "Toxicity towards E. Coli (liquid culture)", "setting": "[4]", "value": "do not display reasonable toxicity"}, {"measurement": "Growth on agar plates compared to control (visual)", "setting": "[5]", "value": "complete inhibition of growth and bleaching"}, {"measurement": "Growth on agar plates compared to control (visual)", "setting": "[6]", "value": "complete inhibition of growth and bleaching"}, {"measurement": "Growth on agar plates compared to control (visual)", "setting": "[7]", "value": "complete inhibition of growth and bleaching"}]}
{"smiles": "C=CC(=O)N(CC(=O)O)CP(=O)(O)O", "note": "[AA, N-Acryloyl-N-(phosphonomethyl)glycine]", "values": [{"measurement": "Average radii of the inhibition zones", "setting": "[1]; [8]", "value": "No"}, {"measurement": "Average radii of the inhibition zones", "setting": "[1]; Syn. 7002, herbicide concentration 3 mM, 5 days", "value": "No"}, {"measurement": "zone of inhibition at 30000 µM", "setting": "[1]; [11]", "value": 6.5, "unit": "mm"}, {"measurement": "zone of inhibition at 300000 µM", "setting": "[1]; [11]", "value": 15, "unit": "mm"}, {"measurement": "Diameter of Inhibition Zone (Bleaching indicates no growth detected on 100 mm plate)", "setting": "[2]; [9]", "value": "23 ± 2", "unit": "mm"}, {"measurement": "Diameter of Inhibition Zone (Bleaching indicates no growth detected on 100 mm plate)", "setting": "[2]; [10]", "value": "Bleaching"}, {"measurement": "Optical Density at 680 nm after 7 days of media growth", "setting": "[3]", "value": 0.54}, {"measurement": "Optical Density at 680 nm, measurements taken after 24 hours of growth", "setting": "[4]", "value": "1.24^c"}, {"measurement": "Toxicity towards E. Coli (liquid culture)", "setting": "[4]", "value": "do not display reasonable toxicity"}, {"measurement": "Growth on agar plates compared to control (visual)", "setting": "[5]", "value": "complete inhibition of growth and bleaching"}, {"measurement": "Growth on agar plates compared to control (visual)", "setting": "[6]", "value": "complete inhibition of growth and bleaching"}, {"measurement": "Growth on agar plates compared to control (visual)", "setting": "[7]", "value": "complete inhibition of growth and bleaching"}]}
